The values that follow come from patent publication US20200268768A1, “CENICRIVIROC COMBINATION THERAPY FOR THE TREATMENT OF FIBROSIS” (Tobira Therapeutics, Inc., priority 2015, published 2020).

Structures are written as SMILES. Where a name gives a salt, the structure may show the parent alone.

Data set [1] can be described thus: Solubility of cenicriviroc mesylate. The format is physicochemical.
For data set [2], the system named is adults with CCR5 tropic HIV-1. The experiment in a line: Study 202 post-hoc APRI and FIB-4 fibrosis index scores. The format is in vivo, human. How it is done:
APRI and FIB-4 scores were calculated. Change in score category from baseline (BL) to Weeks 24 and 48 was assessed in patients with non-missing data. Correlations between changes from BL in APRI and FIB-4 scores, and MCP-1 (CCR2 ligand) and sCD14 (inflammatory biomarker) levels were evaluated.

In data set [3] the test system is HIV-1 infected adult subjects. The experiment in a line: Study 202 biomarkers of inflammation. The format is in vivo, human. The settings on record: EFV 600 mg. The method, then: As an exploratory analysis, levels of inflammation biomarkers MCP-1, sCD14, high sensitivity C-reactive protein [hs-CRP], interleukin-6 [IL-6], D-dimer, and fibrinogen) were measured. Baseline values and changes from baseline at Week 24 and Week 48 of MCP-1, sCD14, hs-CRP, IL-6, D-dimer, and fibrinogen are summarized in Table 22.
The sCD14 samples were originally analyzed in 2 separate batches: Batch 1 included samples leading up to the Week 24 primary analysis and Batch 2 included Week 32 and Week 48 (end of study) samples. A repeat analysis of archived samples all analyzed in one batch was conducted for consistency in analysis across time points. To control for the effects of covariates, a linear mixed-model repeated-measures analysis was conducted on the changes from baseline in sCD14 (analysis dated September 2013).

The mark [4] stands for this setting: Week 24, CVC pooled 100 and 200 mg, or EFV.
Where [5] appears, read: Week 48, CVC pooled 100 and 200 mg, or EFV.

With `CCCCOCCOc1ccc(-c2ccc3c(c2)C=C(C(=O)Nc2ccc([S@@+]([O-])Cc4cncn4CCC)cc2)CCCN3CC(C)C)cc1` [cenicriviroc mesylate, (S)-8-[4-(2-Butoxyethoxy)phenyl]-1-isobutyl-N-(4-{[(1-propyl-1H-imidazol-5-yl)methyl]sulfinyl}phenyl)-1,2,3,4-tetrahydro-1-benzazocine-5-carboxamide monomethanesulfonoate], the Solubility entry in data set [1] (aqueous solution at pH 3) was “sparingly soluble”; in data set [1] (aqueous solution from pH 1 to 2) it was “freely soluble”; in data set [1] (aqueous solution from pH 4 to 13 and in water), “practically insoluble”; in data set [1] (in 99.5% ethanol), “sparingly soluble”; in data set [1] (in acetonitrile, 1-octanol, tetrahydrofuran), “slightly soluble”; in data set [1] (in ethyl acetate and diethylether), “practically insoluble”. The Solubility entry in data set [1] (in glacial acetic acid, methanol, benzyl alcohol, dimethylsulfoxide, N,N-dimethylformamide) was “freely soluble”; in data set [1] (in pyridine and acetic anhydride), “soluble”.
As for `O=C1Nc2ccc(Cl)cc2[C@@](C#CC2CC2)(C(F)(F)F)O1` [EFV, efavirenz, reference compound], the “Subjects with decrease in FIB-4 score by one category” value in data set [2] (EFV arm, all subjects <1.45 at baseline) was “no subject treated with EFV decreased in FIB-4 score by one category”. In data set [2] (setting [4]), the “Subjects in APRI category <0.5” value is 100%, the “Subjects in FIB-4 category <1.45” value came out at 100% and the “Subjects with APRI decreased 1 category from baseline” value came to 5%. Moreover, in data set [2] (setting [5]), the “Subjects in APRI category <0.5” value amounted to 100%, the “Subjects in FIB-4 category 1.45-3.25” value was 6%, the “Subjects in FIB-4 category <1.45” value is listed as 94% and the “Subjects with APRI decreased 1 category from baseline” value was determined as 6%. Moreover, in data set [3] (Week 12), the “sCD14 (original values) change from baseline, mean” value was found to be 90000 pg/mL and the “sCD14 (original values) change from baseline, median” value was found to be 180000 pg/mL. Further, in data set [3] (Week 24), the “D-dimer change from baseline, mean” value was -53 ng/mL; the “D-dimer change from baseline, median” value was -26 ng/mL; the “Fibrinogen change from baseline, mean” value was -28 mg/dL; the “Fibrinogen change from baseline, median” value was -31 mg/dL. Besides, in data set [3] (Week 24), the “IL-6 change from baseline, mean” value is -8.72 pg/mL; the “IL-6 change from baseline, median” value amounted to 0.00 pg/mL; the “MCP-1 change from baseline, mean” value was -44 pg/mL; the “MCP-1 change from baseline, median” value was -17 pg/mL. Also, in data set [3] (Week 24), the “hs-CRP change from baseline, mean” value was -0.46 mg/dL; the “hs-CRP change from baseline, median” value was -0.01 mg/dL; the “sCD14 (original values) change from baseline, mean” value was found to be 230000 pg/mL; the “sCD14 (original values) change from baseline, median” value came to 130000 pg/mL. In data set [3] (Week 32), the “sCD14 (original values) change from baseline, mean” value came out at 480000 pg/mL and the “sCD14 (original values) change from baseline, median” value came to 170000 pg/mL. In addition, in data set [3] (Week 48), the “D-dimer change from baseline, mean” value was -34 ng/mL; the “D-dimer change from baseline, median” value is 0.0 ng/mL; the “Fibrinogen change from baseline, mean” value was -30 mg/dL; the “Fibrinogen change from baseline, median” value is -22 mg/dL. Moreover, in data set [3] (Week 48), the “IL-6 change from baseline, mean” value was -13.11 pg/mL; the “IL-6 change from baseline, median” value is recorded as 0.00 pg/mL; the “MCP-1 change from baseline, mean” value came out at 4.2 pg/mL; the “MCP-1 change from baseline, median” value came to 33.6 pg/mL. Moreover, in data set [3] (Week 48), the “hs-CRP change from baseline, mean” value was -0.71 mg/dL; the “hs-CRP change from baseline, median” value is -0.03 mg/dL; the “sCD14 (original values) change from baseline, median” value worked out at 460000 pg/mL.
